Results reported in US9422262B2, “Compounds and methods for treating diseases mediated by protease activated receptors” (The Broad Institute, Inc., priority 2010, dated 2016).

What was measured:
Par1 (thrombin) receptor = target: T1, Par1 (thrombin) receptor (Homo sapiens, UniProt P25116); assay: SFLLRN-mediated granule secretion, platelet-rich plasma, luciferin-luciferase ATP readout (primary assay); assay type: cell-based; details: Table D; read-out: Activity (measured IC50 category)
T1 construct: endogenous in cells; host or cells: platelets (platelet-rich plasma; washed platelets from individual donors)
T1 sequence (P25116 22-425): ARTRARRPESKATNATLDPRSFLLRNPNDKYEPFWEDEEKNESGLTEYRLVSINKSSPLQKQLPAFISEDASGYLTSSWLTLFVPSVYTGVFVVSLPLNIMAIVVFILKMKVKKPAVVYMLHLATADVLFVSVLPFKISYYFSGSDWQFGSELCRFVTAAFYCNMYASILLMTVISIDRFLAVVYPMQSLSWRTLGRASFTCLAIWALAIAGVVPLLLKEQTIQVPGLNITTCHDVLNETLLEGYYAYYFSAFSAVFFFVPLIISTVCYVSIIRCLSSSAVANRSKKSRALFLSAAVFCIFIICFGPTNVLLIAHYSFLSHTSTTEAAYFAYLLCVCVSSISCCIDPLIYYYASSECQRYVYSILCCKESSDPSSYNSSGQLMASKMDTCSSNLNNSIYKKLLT
Description: The compounds were tested in two independent IC50 determination experiments using the primary assay measuring SFLLRN-mediated granule secretion. For this assay, platelet-rich plasma is treated with putative inhibitors prior to activation by the SFLLRN peptide, which targets the Par1 (thrombin) receptor. Upon activation, platelets secrete dense granules, which are concentrated with ATP. Platelet activation and possible inhibition are monitored by a luciferin-luciferase assay (CellTiter-Glo without lysis reagent) to measure the ATP secreted from activated platelets. Luminescence measurements are made using a plate reader (Envision, PerkinElmer) capable of detecting luminescence.

[1] = tested on: Gα12 signaling downstream of PAR1; assay: PAR1-mediated transmembrane resistance (TER) in MDCK cells overexpressing Gα12; assay type: cell-based; details: FIG. 3B
From the text: (§1) This pattern of inhibition is consistent with that of an allosteric inhibitor. […] This observation raised the possibility that compound 1 blocks PAR1 signaling through Gαq (which mediates platelet aggregation downstream of PAR1), but not Gα12/13 (which mediates shape change downstream of PAR1). A previously identified PAR1 inhibitor, 3,5-difluoro aminoisoxazole (3,5-DFAI), inhibited both shape change and aggregation. Shape change that occurred in the presence of compound 1 was blocked by the Rho kinase inhibitor Y27632, confirming participation of Rho kinase downstream of Gα12/13 in compound-1-resistance shape change (FIG. 3A). […] PAR1-mediated decrease in TER in these cells is dependent on Gα12. […] In contrast, 3,5-DFAI inhibited SFLLRN-mediated decrease in TER (FIG. 3B) and compound 1 inhibited Gαq-mediated Ca^2+ flux in these MDCK cells (FIG. 3C).

PAR1 = target: T2, PAR1 (Homo sapiens, UniProt P25116); assay: PAR1-mediated platelet aggregation and shape change; assay type: cell-based; set-up: endogenous in cells; host or cells: platelets (platelet-rich plasma; washed platelets from individual donors); details: FIG. 3A
T2 sequence (P25116 22-425): T1 sequence (P25116 22-425)
From the text: as §1

thrombus formation = assay: Thrombus formation following laser-induced injury of the cremaster arteriole in mice; assay type: in vivo; details: single infusion of 5 mg/kg
From the text: PAR1 is the thrombin receptor on human platelets and serves an important function in mediating thrombus formation. We tested compound 1 to determine whether it inhibited thrombus formation following laser-induced injury of the cremaster arteriole in mice. The dominant PAR receptor on mouse platelets is PAR4. However, since compound 1 acts at a non-orthosteric site and mouse PAR4 differs from human PAR4, we reasoned that compound 1 may be able to block mouse PAR4. […] When infused into mice at a concentration of 5 mg/kg, compound 1 inhibited platelet accumulation during thrombus formation by >90% (FIG. 4B). Infusion of 5 mg/kg also impaired fibrin generation during thrombus formation (FIG. 4C). Thus, compound 1 blocks both cellular- and coagulation protein-mediated arms of thrombus formation. […] The compound was therefore infused every 30 minutes during the course of these experiments. The short half-life of compound 1 in vivo may be useful in scenarios in which anticoagulation is only required for a short period of time or when anticoagulation needs to be reversed quickly, such as anticoagulation prior to invasive procedures or surgery.
(§2) Since there are also situations in which longer term anticoagulation is desired, we performed further studies in the thrombus formation model to assess analogs of compound 1 that may have a more long-lived effect. […] This instability in mouse plasma may have contributed to its short half-life of efficacy in vivo.

[2] = Stability in mouse plasma; assay type: in vitro ADME
From the text: as §2

Row | IC50 (Par1 (thrombin) receptor) [µM] | Structure (SMILES) | other results
1 | > 10 | CCCC(=O)N(C)c1cccc(NC(=O)c2ccccc2Br)c1 | 
2 | > 10 | CCC(=O)Nc1cc(NC(=O)c2ccccc2C)ccc1C | 
3 | > 10 | CCCC(=O)Nc1cccc(NC(=O)c2cnc3ccccc3c2)c1 | 
4 | > 10 | CCCC(=O)Nc1ccc(Cl)c(NC(=O)c2ccccc2Br)c1 | 
5 | 0.001 to 1 | CCCC(=O)Nc1cccc(NC(=O)c2ccccc2C)c1 | 
6 | > 10 | CCCC(=O)Nc1cccc(N(C)C(=O)c2ccccc2Br)c1 | 
7 | 0.001 to 1 | CCCC(=O)Nc1cccc(NC(=O)c2ccccc2OC(F)(F)F)c1 | 
8 | > 10 | CCC(C)(C)C(=O)Nc1cccc(NC(=O)c2ccccc2Br)c1 | 
9 | > 10 | CCCC(=O)Nc1ccc(NC(=O)c2ccccc2Br)cc1 | 
10 | > 10 | CCCC(=O)Nc1cccc(NC(=O)c2ccccc2C(=O)N(C)C)c1 | 
11 | 1 to 5 | CCCC(=O)Nc1cccc(NC(=O)c2c(C)cccc2C)c1 | 
12 | 0.001 to 1 | CCCCNc1cccc(NC(=O)c2ccccc2Br)c1 | 
13 | 0.001 to 1 | CC(C)CC(=O)Nc1cccc(NC(=O)c2ccccc2Br)c1 [drawing 174] | 
14 | 0.001 to 1 | CCCC(=O)Nc1cccc(NC(=O)c2cc(F)ccc2Br)c1 | 
15 | > 10 | CCCC(=O)Nc1ccnc(NC(=O)c2ccccc2Br)c1 | 
16 | 0.001 to 1 | CCCC(=O)Nc1cccc(NC(=O)c2ccccc2F)c1 | 
17 | > 10 | CCCC(=O)Nc1cccc(NC(=O)c2ccccc2S(C)(=O)=O)c1 | 
18 | > 10 | CCCC(=O)Nc1cccc(NC(=O)c2ccco2)c1 | 
19 | > 10 | CN(C(=O)c1ccccc1Br)c1cccc(NC(=O)C2CCCC2)c1 | 
20 | 0.001 to 1 | CCCC(=O)Nc1cccc(NC(=O)c2ccccc2CC)c1 | 
21 | > 10 | O=C(Nc1cccc(NC(=O)c2ccccc2Br)c1)c1ccccc1 | 
22 | > 10 | CCCC(=O)Nc1cccc(NC(=O)c2cccnc2)c1 | 
23 | 1 to 5 | CCCC(=O)Nc1cccc(NC(=O)c2ccccc2C(F)(F)F)c1 | 
24 | > 10 | CCCC(=O)Nc1ccc(Cl)c(NC(=O)c2ccccc2C)c1 | 
25 | 1 to 5 | CCCC(=O)Nc1cccc(NC(=O)c2cccc(Cl)c2Cl)c1 | 

Further lines, the compound ahead of its results:

Row | Structure (SMILES) | IC50 (Par1 (thrombin) receptor) [µM] | other results
26 | CCCC(=O)Nc1cccc(NC(=O)c2ccc(OC)cc2)c1 | > 10 | 
27 | CCOC(=O)Nc1cccc(NC(=O)c2ccccc2Br)c1 | 1 to 5 | 
28 | O=C(Nc1ccnc(NC(=O)c2ccccc2Br)c1)c1ccccc1 | > 10 | 
29 | CCC(=O)Nc1cccc(NC(=O)c2ccccc2Br)c1 | 1 to 5 | 
30 | CC(=O)Nc1ccc(NC(=O)c2ccccc2Br)cc1 | > 10 | 
31 | CCCC(=O)Nc1cccc(NC(=O)c2cc(C)ccc2Br)c1 | 0.001 to 1 | 
32 | CCCC(=O)Nc1cccc(NC(=O)c2ccc(C(F)(F)F)cc2)c1 | > 10 | 
33 | Nc1c(F)noc1F [3,5-DFAI, 3,5-difluoro aminoisoxazole] |  | PAR1-mediated (SFLLRN) change in TER [1]: inhibited; PAR1-mediated platelet aggregation (PAR1): inhibited; PAR1-mediated platelet shape change (PAR1): inhibited
34 | CCCC(=O)Nc1cccc(NC(=O)c2c(Cl)cccc2Br)c1 | 1 to 5 | 
35 | CCCC(=O)Nc1cccc(NC(=O)c2ccccc2-c2ccccc2)c1 | > 10 | 
36 | C[C@@H](N)[C@H]1CC[C@H](C(=O)Nc2ccncc2)CC1 [Compound Y27632] |  | shape change that occurred in the presence of compound 1 (PAR1; in the presence of compound 1): blocked
37 | CCCC(=O)Nc1cccc(NCc2ccccc2Br)c1 | > 10 | 
38 | O=C(Nc1cc(NC(=O)C2CCCC2)ccn1)c1ccccc1Br | > 10 | 
39 | CCCC(=O)Nc1cccc(NC(=O)c2cccc(S(C)(=O)=O)c2)c1 | > 10 | 
40 | CCCNC(=O)c1cccc(NC(=O)c2ccccc2Cl)c1 | 1 to 5 | 
41 | CCCC(=O)Nc1cccc(NC(=O)c2ccccc2Br)c1 [drawing 135] | 0.001 to 1 | 
42 | CCCC(=O)Nc1cccc(NC(=O)c2ccc(C)cc2)c1 | > 10 | 
43 | CCCC(=O)Nc1cccc(NC(=O)c2ccc(F)cc2Br)c1 | 0.001 to 1 | 
44 | CCCC(=O)Nc1cccc(NC(=O)c2ccccc2Cl)c1 | 1 to 5 | 
45 | CC(C)CC(=O)Nc1cccc(NC(=O)c2ccccc2Br)c1 [2-bromo-N-(3-(3-methylbutanamido)phenyl)benzamide] |  | impairment of platelet accumulation during thrombus formation (thrombus formation; FIG. 5A): > 90%; impairment of fibrin generation during thrombus formation (thrombus formation; FIG. 5B): > 90%; remaining after 5 hour incubation in mouse plasma [2]: 64.6%
46 | CC(=O)Nc1cccc(NC(=O)c2ccccc2Cl)c1 | > 10 | 
47 | O=C(Nc1cccc(NC(=O)C2CCCC2)c1)c1ccccc1Br | 0.001 to 1 | 
48 | O=C(Nc1ccccc1)c1ccccc1Br | 1 to 5 | 
49 | CCCC(=O)Nc1cccc(NC(=O)c2ccc(S(C)(=O)=O)cc2)c1 | > 10 | 
50 | Cc1ccccc1C(=O)Nc1cccc(NC(=O)CC(C)C)c1 | 1 to 5 | 
51 | CCCC(=O)Nc1cccc(NC(=O)c2cc(Cl)ccc2Br)c1 | 0.001 to 1 | 
